Measured values reported in paper PMC10099813, “Stafiba: A STAT5‐Selective Small‐Molecule Inhibitor” (Chembiochem, 2022).

Experiments:
STAT3 = STAT3 (Homo sapiens, UniProt P40763); assay: Competitive fluorescence polarization (FP) binding assay, STAT3; conditions: 2 % DMSO for 5, 10 % DMSO for 10
Method: (§1) Fluorescence polarization assays: Competitive binding assays based on fluorescence polarization were carried out essentially as previously described.[[4a]] Unless stated otherwise, final concentrations of the buffer components were: 10 mM Tris (pH 8.0), 50 mM NaCl, 1 mM EDTA, 1 mM DTT, 0.1 % (v/v) Nonidet P‐40 substitute, and 2 % DMSO. Proteins were used at concentrations which reflect the Kd values of the interactions between the fluoropeptide and the protein preparations. Protein concentrations used for activity analysis of compound 5 were 91 nM for STAT1, 107 nM for STAT3, 28 nM for STAT4, 122 nM for STAT5a, 56 nM for STAT5b and 101 nM for STAT6. Protein concentrations used for activity analysis of AC‐4‐130 were 103 nM for STAT5a and 62 nM for STAT5b. […] Final concentration of all fluorescent‐labelled peptides was 10 nM. The following peptides were used in assays: 5‐carboxyfluorescein‐GpYDKPHVL for STAT1; 5‐carboxyfluorescein‐GpYLPQTV‐NH2 for STAT3; 5‐carboxyfluorescein‐GpYLPQNID for STAT4; 5‐carboxyfluorescein‐GpYLVLDKW for STAT5a/5b, and 5‐carboxyfluorescein‐GpYVPWQDLI for STAT6. Protein and test compounds were incubated for 1 h prior to addition of the fluorescein‐labeled peptide. Fluorescence polarization was measured after another 60 min using an Infinite F500 plate reader (Tecan). IC50 values were converted to Ki‐values using the published equation.[13]

STAT6 = biological target: T1, STAT6 (Homo sapiens, UniProt P42226); assay: Competitive fluorescence polarization (FP) binding assay, STAT6
T1 sequence (P42226 1-847): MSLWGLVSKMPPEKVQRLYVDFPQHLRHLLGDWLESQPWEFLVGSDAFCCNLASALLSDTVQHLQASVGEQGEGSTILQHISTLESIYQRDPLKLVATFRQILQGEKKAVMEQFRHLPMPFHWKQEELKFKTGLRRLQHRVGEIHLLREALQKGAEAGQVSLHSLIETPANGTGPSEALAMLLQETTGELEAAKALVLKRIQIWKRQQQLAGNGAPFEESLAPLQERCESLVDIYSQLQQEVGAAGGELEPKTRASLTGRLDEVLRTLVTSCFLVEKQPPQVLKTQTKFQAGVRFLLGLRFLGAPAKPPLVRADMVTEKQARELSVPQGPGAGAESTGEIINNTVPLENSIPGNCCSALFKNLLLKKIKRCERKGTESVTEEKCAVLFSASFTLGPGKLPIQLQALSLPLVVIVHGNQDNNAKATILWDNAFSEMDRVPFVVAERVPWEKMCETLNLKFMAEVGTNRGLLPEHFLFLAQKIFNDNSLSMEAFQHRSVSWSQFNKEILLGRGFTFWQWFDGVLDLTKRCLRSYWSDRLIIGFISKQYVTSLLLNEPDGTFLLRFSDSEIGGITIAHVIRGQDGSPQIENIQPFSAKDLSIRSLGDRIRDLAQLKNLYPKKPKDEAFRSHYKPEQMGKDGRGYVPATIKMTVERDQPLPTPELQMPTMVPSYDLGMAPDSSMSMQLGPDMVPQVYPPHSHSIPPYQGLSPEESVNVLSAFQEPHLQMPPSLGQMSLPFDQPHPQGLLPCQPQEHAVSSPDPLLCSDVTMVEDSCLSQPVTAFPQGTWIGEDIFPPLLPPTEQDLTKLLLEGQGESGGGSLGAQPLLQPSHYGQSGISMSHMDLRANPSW
Method: as §1

STAT4 = biological target: T2, STAT4 (Homo sapiens, UniProt Q14765); assay: Competitive fluorescence polarization (FP) binding assay, STAT4; conditions: for IC50: 2 % DMSO for 5, 10 % DMSO for 10; for Ki: Ki calculated from IC50, 2 % DMSO for 5, 10 % DMSO for 10
T2 sequence (Q14765 1-748): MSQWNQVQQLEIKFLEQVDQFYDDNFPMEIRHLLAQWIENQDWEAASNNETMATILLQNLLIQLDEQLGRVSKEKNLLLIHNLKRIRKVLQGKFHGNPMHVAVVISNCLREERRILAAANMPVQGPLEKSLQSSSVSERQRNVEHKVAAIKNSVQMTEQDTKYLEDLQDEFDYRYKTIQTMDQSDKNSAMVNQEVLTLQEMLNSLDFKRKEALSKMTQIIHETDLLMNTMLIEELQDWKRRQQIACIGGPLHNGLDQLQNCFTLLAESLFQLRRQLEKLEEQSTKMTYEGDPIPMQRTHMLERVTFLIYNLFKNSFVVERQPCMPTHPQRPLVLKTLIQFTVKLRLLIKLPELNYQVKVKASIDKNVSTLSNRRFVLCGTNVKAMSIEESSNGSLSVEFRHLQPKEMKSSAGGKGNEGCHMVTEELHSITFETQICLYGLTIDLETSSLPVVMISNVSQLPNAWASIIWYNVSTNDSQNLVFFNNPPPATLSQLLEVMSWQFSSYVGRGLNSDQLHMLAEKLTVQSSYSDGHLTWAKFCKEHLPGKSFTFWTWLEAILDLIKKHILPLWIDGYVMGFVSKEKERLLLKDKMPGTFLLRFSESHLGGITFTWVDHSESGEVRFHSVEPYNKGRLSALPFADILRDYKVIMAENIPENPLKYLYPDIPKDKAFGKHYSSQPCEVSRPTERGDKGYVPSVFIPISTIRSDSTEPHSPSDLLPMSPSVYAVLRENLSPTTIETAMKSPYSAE
Method: as §1

[1] = Solubility as observed during synthesis / stock preparation; format: physicochemical; conditions: DMSO stock solution

Sequence of STAT3 (P40763 whole entry, species assumed): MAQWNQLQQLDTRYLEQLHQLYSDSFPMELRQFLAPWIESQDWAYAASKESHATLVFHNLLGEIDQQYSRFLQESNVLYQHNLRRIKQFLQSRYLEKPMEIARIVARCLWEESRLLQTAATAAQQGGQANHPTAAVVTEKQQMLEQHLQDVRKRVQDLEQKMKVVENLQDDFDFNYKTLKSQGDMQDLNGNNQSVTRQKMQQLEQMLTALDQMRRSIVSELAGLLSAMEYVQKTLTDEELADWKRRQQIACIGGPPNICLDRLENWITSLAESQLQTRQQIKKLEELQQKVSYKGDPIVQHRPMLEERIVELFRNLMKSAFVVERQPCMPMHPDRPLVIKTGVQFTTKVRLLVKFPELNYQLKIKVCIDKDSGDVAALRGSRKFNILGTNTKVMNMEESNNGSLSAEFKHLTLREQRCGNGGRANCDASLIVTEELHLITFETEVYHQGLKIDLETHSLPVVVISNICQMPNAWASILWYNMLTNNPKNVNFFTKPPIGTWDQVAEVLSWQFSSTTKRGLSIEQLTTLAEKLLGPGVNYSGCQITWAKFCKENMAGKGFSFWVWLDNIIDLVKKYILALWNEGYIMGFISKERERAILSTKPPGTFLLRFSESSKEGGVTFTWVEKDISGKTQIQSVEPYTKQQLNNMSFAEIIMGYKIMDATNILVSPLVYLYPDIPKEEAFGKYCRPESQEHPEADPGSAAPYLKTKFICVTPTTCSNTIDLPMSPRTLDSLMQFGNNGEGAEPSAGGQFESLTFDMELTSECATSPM

SMILES | inhibition at 100 µM (STAT3) [%] | inhibition at 100 µM (STAT6; 100 µM, 2 % DMSO) [%] | IC50 (STAT4) [µM] | Ki (STAT4) [µM] | solubility in the DMSO stock solution [1] | IC50 (STAT6; 10 % DMSO) [µM] | Ki (STAT6; Ki calculated from IC50, 10 % DMSO) [µM]
O=C(CNc1ccc(C(=O)Nc2ccc(Oc3ccccc3)cc2)cc1)NCc1cc(OP(=O)(O)O)cc(OP(=O)(O)O)c1 [compound 5] | 33 ± 11 | 48 ± 1 | 11.3 ± 2.7 | 5.3 ± 1.3 |  |  | 
O=C(CNc1ccc(C(=O)Nc2ccc(Oc3ccccc3)cc2)cc1)NCc1cc(C(F)(F)P(=O)(O)O)c(F)c(C(F)(F)P(=O)(O)O)c1 [compound 10] | 49 ± 3 |  | 11.2 ± 1.2 | 5.3 ± 0.6 | limited solubility | 61.3 ± 2.7 | 30.1 ± 1.3
